Experimental data taken from patent US11123337B2, “4-methylsulfonyl-substituted piperidine urea compounds” (MYOKARDIA, INC., priority 2015, dated 2021).

Target: bovine cardiac myosin (Bos taurus, UniProt Q9BE39)
Experiment: Myosin activation assay (PK/LDH-coupled ATPase, bovine cardiac myofibrils)
Type: biochemical
Settings: AC20 = concentration at which total response is increased by twenty percent
Protocol: Small molecule agents were assessed for their ability to activate the enzymatic activity of bovine cardiac myosin using a biochemical assay that couples the release of ADP (adenosine diphosphate) from cardiac myosin to an enzymatic coupling system consisting of pyruvate kinase and lactate dehydrogenase (PK/LDH) and monitoring the absorbance decrease of NADH (at 340 nm) as a function of time. PK converts ADP to ATP (adenosine triphosphate) by converting PEP (phosphoenolpyruvate) to pyruvate. Pyruvate is then converted to lactate by LDH by converting NADH (nicotinamide adenine dinucleotide) to NAD (oxidized nicotinamide adenine dinucleotide). The source of cardiac myosin was from bovine heart in the form of skinned myofibrils. Prior to testing small molecule agents, the bovine myofibrils were assessed for their calcium responsiveness and the calcium concentration that achieves either a 50% (pCa50 or pCa=˜6) or <5% (pCa=10) activation of the myofibril system was chosen as the final condition for assessing the activation activity of the small molecule agents. All enzymatic activity was measured in a buffered solution containing 12 mM PIPES (piperazine-N,N′-bis(2-ethanesulfonic acid), 2 mM magnesium chloride at pH 6.8 (PM12 buffer). Final assay conditions were 1 mg/mL of bovine cardiac myofibrils, 0.4 mM PK/LDH, 50 uM ATP, 0.1 mg/mL BSA (bovine serum albumin), 10 ppm antifoam, 2 mM BME, 0.5 mM NADH, 1.5 mM PEP at the desired free calcium concentration required to achieve either 50% or <5% activation of the myofibrils.
A dilution series of compound was created in DMSO such that the final desired concentration of compound would be achieved in a volume of […] with a fixed DMSO concentration of 3.3% (v/v). Typically a 1 μL of the dilution series was added to a 384 well plate to achieve a 10 point dose response. Following the addition of 14 μL of a solution containing bovine cardiac myofibrils, PK/LDH and a solution of calcium (that achieved the desired activation), the enzymatic reaction was started with the addition of 15 μL of a solution containing ATP, PEP and NADH. The reaction progress was followed in a PerkinElmer Envision plate reader at ambient temperature using clear bottom plates. The plate reader was configured to read absorbance at 340 nm in kinetics mode for 15 minutes. Data were recorded as the slope of the absorbance response to time. The slopes of the absorbance response as a function of time were normalized to slopes on the plate containing DMSO. This normalized rate was then plotted as a function of small molecule concentration and the data was fitted to a four-parameter fit using EXCEL XLfit. The concentration at which the total response is increased by twenty or fifty percent is reported as AC20 or AC50.

Sequence of bovine cardiac myosin (Q9BE39 whole entry): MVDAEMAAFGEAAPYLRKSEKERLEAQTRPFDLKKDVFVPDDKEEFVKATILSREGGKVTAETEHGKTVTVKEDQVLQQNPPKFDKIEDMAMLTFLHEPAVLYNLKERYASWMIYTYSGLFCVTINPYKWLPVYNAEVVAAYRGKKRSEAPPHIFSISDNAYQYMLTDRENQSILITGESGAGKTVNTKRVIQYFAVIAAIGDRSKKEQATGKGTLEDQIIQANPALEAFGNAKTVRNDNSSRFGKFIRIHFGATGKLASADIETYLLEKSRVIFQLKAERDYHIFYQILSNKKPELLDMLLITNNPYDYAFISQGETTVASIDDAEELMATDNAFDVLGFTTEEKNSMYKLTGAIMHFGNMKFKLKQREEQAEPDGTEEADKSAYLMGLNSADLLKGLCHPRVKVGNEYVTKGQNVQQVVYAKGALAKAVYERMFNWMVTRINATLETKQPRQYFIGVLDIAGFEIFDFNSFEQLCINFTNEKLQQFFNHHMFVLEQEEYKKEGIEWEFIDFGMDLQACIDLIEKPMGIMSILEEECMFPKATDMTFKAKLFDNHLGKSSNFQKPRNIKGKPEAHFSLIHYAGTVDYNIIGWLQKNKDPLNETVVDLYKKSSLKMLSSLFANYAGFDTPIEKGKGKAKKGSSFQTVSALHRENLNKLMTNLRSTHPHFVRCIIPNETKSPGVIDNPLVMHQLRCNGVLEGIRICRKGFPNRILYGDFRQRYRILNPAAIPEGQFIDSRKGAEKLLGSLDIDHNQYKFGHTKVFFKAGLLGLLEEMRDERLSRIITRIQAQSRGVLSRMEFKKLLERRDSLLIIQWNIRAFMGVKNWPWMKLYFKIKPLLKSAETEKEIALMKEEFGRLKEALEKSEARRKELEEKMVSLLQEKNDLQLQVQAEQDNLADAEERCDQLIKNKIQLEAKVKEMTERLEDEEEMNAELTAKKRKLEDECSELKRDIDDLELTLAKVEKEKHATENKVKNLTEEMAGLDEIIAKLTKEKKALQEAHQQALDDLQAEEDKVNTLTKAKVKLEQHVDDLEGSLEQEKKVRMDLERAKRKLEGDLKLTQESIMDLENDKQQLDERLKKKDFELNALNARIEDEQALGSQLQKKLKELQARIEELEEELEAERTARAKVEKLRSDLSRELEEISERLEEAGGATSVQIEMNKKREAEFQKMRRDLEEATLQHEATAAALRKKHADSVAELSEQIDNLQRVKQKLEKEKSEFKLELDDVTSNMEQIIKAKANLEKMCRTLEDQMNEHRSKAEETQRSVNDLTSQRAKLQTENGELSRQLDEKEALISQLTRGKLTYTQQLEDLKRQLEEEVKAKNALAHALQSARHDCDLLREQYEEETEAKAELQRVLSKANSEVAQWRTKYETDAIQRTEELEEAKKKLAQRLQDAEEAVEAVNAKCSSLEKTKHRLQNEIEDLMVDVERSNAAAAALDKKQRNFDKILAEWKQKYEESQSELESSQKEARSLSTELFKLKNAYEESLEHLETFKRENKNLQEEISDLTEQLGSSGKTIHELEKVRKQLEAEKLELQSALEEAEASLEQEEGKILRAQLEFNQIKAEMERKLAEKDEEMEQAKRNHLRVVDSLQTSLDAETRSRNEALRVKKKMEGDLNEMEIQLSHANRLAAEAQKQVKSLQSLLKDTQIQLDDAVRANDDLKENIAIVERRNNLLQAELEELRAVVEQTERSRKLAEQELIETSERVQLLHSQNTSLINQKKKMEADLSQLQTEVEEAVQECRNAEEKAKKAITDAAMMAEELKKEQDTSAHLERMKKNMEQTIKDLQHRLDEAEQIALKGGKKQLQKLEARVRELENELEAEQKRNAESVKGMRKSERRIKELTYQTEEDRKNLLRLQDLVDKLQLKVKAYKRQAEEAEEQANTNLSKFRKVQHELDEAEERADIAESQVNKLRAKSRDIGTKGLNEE
Sequence of bovine cardiac myosin (P85100 whole entry partner): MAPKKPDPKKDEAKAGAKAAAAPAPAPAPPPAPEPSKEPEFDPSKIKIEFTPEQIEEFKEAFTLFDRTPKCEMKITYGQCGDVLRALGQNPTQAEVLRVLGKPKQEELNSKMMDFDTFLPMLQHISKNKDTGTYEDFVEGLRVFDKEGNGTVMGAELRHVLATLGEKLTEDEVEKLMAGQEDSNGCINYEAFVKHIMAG
Sequence of bovine cardiac myosin (Q3SZE5 whole entry partner): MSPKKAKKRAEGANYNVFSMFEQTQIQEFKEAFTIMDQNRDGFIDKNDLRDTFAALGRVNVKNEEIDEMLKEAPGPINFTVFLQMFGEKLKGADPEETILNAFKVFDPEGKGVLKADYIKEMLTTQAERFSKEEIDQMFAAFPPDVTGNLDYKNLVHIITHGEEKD

Row | SMILES | Myosin Activation (AC20)
1 | CC(F)(F)C(C)(C1CCN(C(=O)Nc2ccnnc2)CC1)S(=O)(=O)c1cccc(F)c1 (centres unmarked) [Compound 178, 4-(3,3-difluoro-2-((3-fluorophenyl)sulfonyl)butan-2-yl)-N-(pyridazin-4-yl)piperidine-1-carboxamide] | +++ (+++ represents myosin activation value AC20 < 2 μM)
2 | CC(C)(C1CCN(C(=O)Nc2cncnc2)CC1)S(=O)(=O)c1cccc(F)c1 [Compound 132, 4-(2-((3-fluorophenyl)sulfonyl)propan-2-yl)-N-(pyrimidin-5-yl)piperidine-1-carboxamide] | + (+ represents myosin activation value AC20 > 5 μM)
3 | Cc1cc(NC(=O)N2CCC([C@](C)(F)S(=O)(=O)c3cn(C)nc3C(F)F)CC2)ccn1 [Compound 233, (R)-4-(1-((3-(difluoromethyl)-1-methyl-1H-pyrazol-4-yl)sulfonyl)-1-fluoroethyl)-N-(2-methylpyridin-4-yl)piperidine-1-carboxamide] | +++ (+++ represents myosin activation value AC20 < 2 μM)
4 | Cn1cc(S(=O)(=O)C2(C3CCN(C(=O)Nc4ccnnc4)CC3)CCC2)c(C(F)F)n1 [Compound 170, 4-(1-((3-(difluoromethyl)-1-methyl-1H-pyrazol-4-yl)sulfonyl)cyclobutyl)-N-(pyridazin-4-yl)piperidine-1-carboxamide] | +++ (+++ represents myosin activation value AC20 < 2 μM)
5 | Cc1cc(S(=O)(=O)C(C)(C)C2CCN(C(=O)Nc3ccnnc3)CC2)n(C)n1 [Compound 187, 4-(2-((1,3-dimethyl-1H-pyrazol-5-yl)sulfonyl)propan-2-yl)-N-(pyridazin-4-yl)piperidine-1-carboxamide] | +++ (+++ represents myosin activation value AC20 < 2 μM)
6 | Cn1cc(S(=O)(=O)C(F)(F)C2CCN(C(=O)Nc3ccnc(CO)c3)CC2)c(C(F)F)n1 [Compound 101, 4-(((3-(difluoromethyl)-1-methyl-1H-pyrazol-4-yl)sulfonyl)difluoromethyl)-N-(2-(hydroxymethyl)pyridin-4-yl)piperidine-1-carboxamide] | ++ (++ represents myosin activation value AC20 from 2 μM-5 μM)
7 | O=C(Nc1cnns1)N1CCC(C(F)(F)S(=O)(=O)c2cccc(F)c2)CC1 [Compound 44, 4-(difluoro((3-fluorophenyl)sulfonyl)methyl)-N-(1,2,3-thiadiazol-5-yl)piperidine-1-carboxamide] | + (+ represents myosin activation value AC20 > 5 μM)
8 | Cn1cc(S(=O)(=O)[C@](C)(F)C2CCN(C(=O)Nc3ccnc(F)c3)CC2)c(C(F)F)n1 [Compound 231, (S)-4-(1-((3-(difluoromethyl)-1-methyl-1H-pyrazol-4-yl)sulfonyl)-1-fluoroethyl)-N-(2-fluoropyridin-4-yl)piperidine-1-carboxamide] | + (+ represents myosin activation value AC20 > 5 μM)
9 | Cn1cc(S(=O)(=O)C(C)(C)C2CCN(C(=O)Nc3ccnnc3)CC2)c(C(F)F)n1 [Compound 168, 4-(2-((3-(difluoromethyl)-1-methyl-1H-pyrazol-4-yl)sulfonyl)propan-2-yl)-N-(pyridazin-4-yl)piperidine-1-carboxamide] | +++ (+++ represents myosin activation value AC20 < 2 μM)
10 | C[C@](F)(C1CCN(C(=O)Nc2ccc(CO)nc2)CC1)S(=O)(=O)c1cccc(F)c1 [Compound 286, (R)-4-(1-fluoro-1-((3-fluorophenyl)sulfonyl)ethyl)-N-(6-(hydroxymethyl)pyridin-3-yl)piperidine-1-carboxamide] | + (+ represents myosin activation value AC20 > 5 μM)
11 | Cn1nc(C(F)(F)F)cc1S(=O)(=O)C(C)(C)C1CCN(C(=O)Nc2ccnc(F)c2)CC1 [Compound 127, N-(2-fluoropyridin-4-yl)-4-(2-((1-methyl-3-(trifluoromethyl)-1H-pyrazol-5-yl)sulfonyl)propan-2-yl)piperidine-1-carboxamide] | ++ (++ represents myosin activation value AC20 from 2 μM-5 μM)
12 | COc1ncccc1S(=O)(=O)C(C)(C)C1CCN(C(=O)Nc2ccnnc2)CC1 [Compound 190, 4-(2-((2-methoxypyridin-3-yl)sulfonyl)propan-2-yl)-N-(pyridazin-4-yl)piperidine-1-carboxamide] | ++ (++ represents myosin activation value AC20 from 2 μM-5 μM)
13 | Cn1cc(S(=O)(=O)[C@@](C)(F)C2CCN(C(=O)Nc3ccnc(F)c3)CC2)c(C(F)F)n1 [Compound 297, (R)-4-(1-((3-(difluoromethyl)-1-methyl-1H-pyrazol-4-yl)sulfonyl)-1-fluoroethyl)-N-(2-fluoropyridin-4-yl)piperidine-1-carboxamide] | +++ (+++ represents myosin activation value AC20 < 2 μM)
14 | Cn1cc(S(=O)(=O)C(C)(C)C2CCN(C(=O)Nc3ccc(F)nc3)CC2)c(C(F)(F)F)n1 [Compound 111, N-(6-fluoropyridin-3-yl)-4-(2-((1-methyl-3-(trifluoromethyl)-1H-pyrazol-4-yl)sulfonyl)propan-2-yl)piperidine-1-carboxamide] | ++ (++ represents myosin activation value AC20 from 2 μM-5 μM)
15 | COc1ccc(S(=O)(=O)[C@](C)(F)C2CCN(C(=O)Nc3ccon3)CC2)cn1 [Compound 307, (S)-4-(1-fluoro-1-((6-methoxypyridin-3-yl)sulfonyl)ethyl)-N-(isoxazol-3-yl)piperidine-1-carboxamide] | + (+ represents myosin activation value AC20 > 5 μM)
16 | Cc1ccccc1S(=O)(=O)C(C)(C)C1CCN(C(=O)Nc2ccncc2)CC1 [Compound 212, N-(pyridin-4-yl)-4-(2-(o-tolylsulfonyl)propan-2-yl)piperidine-1-carboxamide] | +++ (+++ represents myosin activation value AC20 < 2 μM)
17 | C[C@H](O)c1cc(NC(=O)N2CCC([C@](C)(F)S(=O)(=O)c3cccc(F)c3)CC2)ccn1 [Compound 302, 4-((R)-1-fluoro-1-((3-fluorophenyl)sulfonyl)ethyl)-N-(2-((S)-1-hydroxyethyl)pyridin-4-yl)piperidine-1-carboxamide] | + (+ represents myosin activation value AC20 > 5 μM)
18 | Cc1ccc(NC(=O)N2CCC([C@](C)(F)S(=O)(=O)c3cn(C)nc3C(F)F)CC2)cn1 [Compound 260, (R)-4-(1-((3-(difluoromethyl)-1-methyl-1H-pyrazol-4-yl)sulfonyl)-1-fluoroethyl)-N-(6-methylpyridin-3-yl)piperidine-1-carboxamide] | ++ (++ represents myosin activation value AC20 from 2 μM-5 μM)
19 | C[C@@](F)(C1CCN(C(=O)Nc2ccon2)CC1)S(=O)(=O)c1cccc(F)c1 [Compound 285, (S)-4-(1-fluoro-1-((3-fluorophenyl)sulfonyl)ethyl)-N-(isoxazol-3-yl)piperidine-1-carboxamide] | + (+ represents myosin activation value AC20 > 5 μM)
20 | CC(F)(C1CCN(C(=O)Nc2ccno2)CC1)S(=O)(=O)c1cccc(F)c1 (centres unmarked) [Compound 11, 4-(1-Fluoro-1-((3-fluorophenyl)sulfonyl)ethyl)-N-(isoxazol-5-yl)piperidine-1-carboxamide] | ++ (++ represents myosin activation value AC20 from 2 μM-5 μM)
21 | Cn1cc(S(=O)(=O)C(C)(C)C2CCN(C(=O)Nc3ccnnc3)CC2)c(C(F)(F)F)n1 [Compound 120, 4-(2-((1-methyl-3-(trifluoromethyl)-1H-pyrazol-4-yl)sulfonyl)propan-2-yl)-N-(pyridazin-4-yl)piperidine-1-carboxamide] | ++ (++ represents myosin activation value AC20 from 2 μM-5 μM)
22 | CC(C)(C1CCN(C(=O)Nc2ccon2)CC1)S(=O)(=O)c1ccc(C#N)cc1 [Compound 102, 4-(2-((4-cyanophenyl)sulfonyl)propan-2-yl)-N-(isoxazol-3-yl)piperidine-1-carboxamide] | + (+ represents myosin activation value AC20 > 5 μM)
23 | Cn1nc(Cl)cc1S(=O)(=O)C(C)(C)C1CCN(C(=O)Nc2ccnnc2)CC1 [Compound 140, 4-(2-((3-chloro-1-methyl-1H-pyrazol-5-yl)sulfonyl)propan-2-yl)-N-(pyridazin-4-yl)piperidine-1-carboxamide] | +++ (+++ represents myosin activation value AC20 < 2 μM)
